Laboratory results reported in the supplement of paper PMC10307832.

Tests used:
Assay in all cases: relative viability (nuclei count vs DMSO), 5 days (fraction); higher = more cells survive
[1] = compound: C1=CC2=C(C=C(C(=C2N=C1)O)N=NC3=CC4=C(C=C3)C=C(C=C4)S(=O)(=O)O)S(=O)(=O)O + O=C(c1cc(Cc2n[nH]c(=O)c3ccccc23)ccc1F)N1CCN(C(=O)C2CC2)CC1 [Olaparib] (partner 8 µM)
Outline: (§1)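 Five library-drug doses in √10 steps were combined with a fixed anchor-drug dose, or a single drug was given alone, by pin tool to lung cancer cell lines in 1536-well plates the day after seeding. Nuclei were stained and counted after 5 days. Relative viability is the nuclei count in treated wells over that in vehicle wells, taken as the median of duplicate plates.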

[2] = compound: O=C(NC1CCNCC1)c1n[nH]cc1NC(=O)c1c(Cl)cccc1Cl [AT-7519] + O=C(CCCCCCC(=O)Nc1ccccc1)NO [Vorinostat] (partner 1 µM)
Outline: as §1

[3] = compound: C1=CC2=C(C=C(C(=C2N=C1)O)N=NC3=CC4=C(C=C3)C=C(C=C4)S(=O)(=O)O)S(=O)(=O)O + Nc1nc2[nH]cc(CCc3ccc(C(=O)N[C@@H](CCC(=O)O)C(=O)O)cc3)c2c(=O)[nH]1 [Pemetrexed] (partner 0.2 µM)
Outline: as §1

[4] = compound: O=C(NC1CCNCC1)c1n[nH]cc1NC(=O)c1c(Cl)cccc1Cl [AT-7519] + CS(=O)(=O)N1CCN(Cc2cc3nc(-c4cccc5[nH]ncc45)nc(N4CCOCC4)c3s2)CC1 [Pictilisib] (partner 1 µM)
Outline: as §1

Cell Line	relative viability ([1]; first compound 0.08 µM)	relative viability ([1]; first compound 0.253 µM)	relative viability ([1]; first compound 0.8 µM)	relative viability ([1]; first compound 2.53 µM)	relative viability ([1]; first compound 8 µM)	relative viability ([2]; first compound 0.01 µM)	relative viability ([2]; first compound 0.03162 µM)	relative viability ([2]; first compound 0.3162 µM)	relative viability ([2]; first compound 1 µM)	relative viability ([3]; first compound 0.08 µM)	relative viability ([3]; first compound 0.253 µM)	relative viability ([3]; first compound 0.8 µM)	relative viability ([3]; first compound 2.53 µM)	relative viability ([3]; first compound 8 µM)	relative viability ([4]; first compound 0.01 µM)	relative viability ([4]; first compound 0.03162 µM)	relative viability ([4]; first compound 0.3162 µM)	relative viability ([4]; first compound 1 µM)
201T	0.846	0.82	0.871	0.852	0.832	0.975	0.952	1.01	1.12	0.324	0.319	0.341	0.332	0.354	0.684	0.712	0.7	0.77
A549	0.469	0.331	0.299	0.313	0.135	–	–	–	–	–	–	–	–	–	0.463	0.466	0.421	0.0948
A-427	0.727	0.763	0.709	0.825	0.736	0.894	0.863	0.927	0.768	0.996	1.02	0.929	1.07	0.996	0.711	0.713	0.574	0.253
ABC-1	0.634	0.762	0.754	0.684	0.916	1.16	1.14	1.01	1.28	–	–	–	–	–	0.837	0.688	0.527	0.202
BEN	0.868	1.13	1.05	1.27	0.974	0.6	0.537	0.593	0.579	0.745	0.736	0.76	0.867	0.61	0.532	0.512	0.697	0.468
CAL-12T	0.85	0.678	0.648	0.681	0.74	0.777	0.653	0.543	0.108	1.25	1.18	1.14	1.18	1.13	–	0.514	0.214	0.193
COR-L23	0.308	0.344	0.35	0.394	0.296	0.508	0.507	0.344	0.152	0.206	0.202	0.2	0.199	0.192	0.728	0.598	0.291	0.0899
COR-L 105	0.676	0.62	0.732	0.701	0.83	0.791	0.856	0.686	0.499	1.3	1.14	1.21	1.04	1.1	0.372	0.423	0.254	0.246
Calu-6	0.55	0.546	0.55	0.58	0.658	–	–	–	–	–	–	–	–	–	0.863	0.919	0.689	0.131
ChaGo-K-1	0.445	0.405	0.438	0.422	0.341	0.734	0.741	0.797	0.752	0.256	0.257	0.272	0.256	0.242	0.589	1.16	0.536	0.547
EBC-1	0.808	0.634	0.694	0.758	0.732	–	–	–	–	–	–	–	–	–	0.393	0.31	0.288	0.139
EKVX	1.02	0.77	0.904	0.822	0.955	0.671	0.636	0.535	0.786	0.41	0.369	0.393	0.397	0.388	0.449	0.385	0.393	0.346
EMC-BAC-2	0.504	0.485	0.493	0.489	0.465	0.424	0.422	0.531	0.878	0.417	0.433	0.433	0.458	0.421	0.56	0.524	0.506	0.538
EPLC-272H	0.855	0.683	0.722	1	0.808	0.406	0.328	0.36	0.0395	0.327	0.364	0.358	0.374	0.379	0.384	0.311	0.249	0.17
H3255	0.6	0.571	0.551	0.638	0.587	0.794	0.816	0.905	0.787	0.545	0.576	0.559	0.556	0.57	0.537	0.502	0.441	0.313
HARA	0.959	0.797	0.697	0.741	0.764	0.479	0.527	0.588	0.223	0.212	0.214	0.252	0.206	0.237	0.361	0.354	0.554	0.279
HCC-15	0.879	0.682	0.714	0.698	0.727	0.857	0.796	0.799	0.565	0.221	0.229	0.213	0.235	0.24	0.766	0.764	0.59	0.323
HCC-44	1.02	0.945	0.956	0.982	0.933	1.16	1.08	1.11	1.08	0.703	0.692	0.649	0.675	0.728	0.588	0.625	0.552	0.688
HCC-78	0.971	0.908	0.733	0.801	0.811	0.411	0.409	0.438	0.417	0.915	0.922	0.902	0.887	0.908	0.208	0.214	0.146	0.209
HCC-366	0.432	0.402	0.335	0.361	0.319	0.254	0.325	0.278	0.241	0.162	0.14	0.157	0.145	0.163	0.0989	0.152	0.111	0.123
